Measurements from ChEMBL document CHEMBL6153174, “Design and Synthesis of Novel Deazapurine DNMT 1 Inhibitors with In Vivo Efficacy in DLBCL” (J Med Chem, 2025).
Calls of active or inactive are those of the source. The rule behind the calls is not given here.

Key:
[1] = molecular target: T1, DNA (cytosine-5)-methyltransferase 1 (Homo sapiens, UniProt P26358); assay: Inhibition of DNMT1 (unknown origin) preincubated for 15 mins followed by substrate and [3H-SAM] addition and measured after 60 mins by microbeta analysis
TMD8 [2] = assay: Induction of apoptosis in human TMD8 cells assessed as early apoptotic cells at 5 uM measured after 48 hrs by annexin-V/FITC and PI staining based flow cytometry analysis (reference value: 9.15%); assay type: functional
[3] = Antitumor activity against human TMD8 cells harbouring TP53 mutant xenografted in mouse model assessed as tumor inhibition rate at 10 mg/kg, iv administered three times a week relative to control; assay type: functional; design: scale not given: the % may be the effect or the level left
[4] = AUC (0 to t) in Sprague-Dawley rat at 10 mg/kg, po measured upto 24 hrs by LC/MS/MS analysis; assay type: ADME, organism-based; conditions: Sprague-Dawley, in vivo
DOHH-2 [5] = assay: Induction of apoptosis in human DOHH-2 cells assessed as early apoptotic cells at 1 uM measured after 48 hrs by annexin-V/FITC and PI staining based flow cytometry analysis (reference value: 5.69%); assay type: functional
[6] = Clearance in Sprague-Dawley rat at 10 mg/kg, iv measured upto 24 hrs by LC/MS/MS analysis; assay type: ADME, organism-based; conditions: in vivo
[7] = molecular target: T1, DNA (cytosine-5)-methyltransferase 1; assay: Inhibition of DNMT1 in human DOHH-2 cells assessed as inhibition of H3K9 methylation level at 1 uM incubated for 48 hrs by Western blot analysis; assay type: cell-based
[8] = molecular target: T2, Histone-lysine N-methyltransferase EHMT2 (Homo sapiens) (UniProt Q96KQ7); assay: Inhibition of G9a (unknown origin) at 5 uM preincubated for 15 mins followed by substrate and [3H-SAM] addition and measured after 60 mins by microbeta analysis relative to control; conditions: time 75.0 min
T2 sequence (whole entry): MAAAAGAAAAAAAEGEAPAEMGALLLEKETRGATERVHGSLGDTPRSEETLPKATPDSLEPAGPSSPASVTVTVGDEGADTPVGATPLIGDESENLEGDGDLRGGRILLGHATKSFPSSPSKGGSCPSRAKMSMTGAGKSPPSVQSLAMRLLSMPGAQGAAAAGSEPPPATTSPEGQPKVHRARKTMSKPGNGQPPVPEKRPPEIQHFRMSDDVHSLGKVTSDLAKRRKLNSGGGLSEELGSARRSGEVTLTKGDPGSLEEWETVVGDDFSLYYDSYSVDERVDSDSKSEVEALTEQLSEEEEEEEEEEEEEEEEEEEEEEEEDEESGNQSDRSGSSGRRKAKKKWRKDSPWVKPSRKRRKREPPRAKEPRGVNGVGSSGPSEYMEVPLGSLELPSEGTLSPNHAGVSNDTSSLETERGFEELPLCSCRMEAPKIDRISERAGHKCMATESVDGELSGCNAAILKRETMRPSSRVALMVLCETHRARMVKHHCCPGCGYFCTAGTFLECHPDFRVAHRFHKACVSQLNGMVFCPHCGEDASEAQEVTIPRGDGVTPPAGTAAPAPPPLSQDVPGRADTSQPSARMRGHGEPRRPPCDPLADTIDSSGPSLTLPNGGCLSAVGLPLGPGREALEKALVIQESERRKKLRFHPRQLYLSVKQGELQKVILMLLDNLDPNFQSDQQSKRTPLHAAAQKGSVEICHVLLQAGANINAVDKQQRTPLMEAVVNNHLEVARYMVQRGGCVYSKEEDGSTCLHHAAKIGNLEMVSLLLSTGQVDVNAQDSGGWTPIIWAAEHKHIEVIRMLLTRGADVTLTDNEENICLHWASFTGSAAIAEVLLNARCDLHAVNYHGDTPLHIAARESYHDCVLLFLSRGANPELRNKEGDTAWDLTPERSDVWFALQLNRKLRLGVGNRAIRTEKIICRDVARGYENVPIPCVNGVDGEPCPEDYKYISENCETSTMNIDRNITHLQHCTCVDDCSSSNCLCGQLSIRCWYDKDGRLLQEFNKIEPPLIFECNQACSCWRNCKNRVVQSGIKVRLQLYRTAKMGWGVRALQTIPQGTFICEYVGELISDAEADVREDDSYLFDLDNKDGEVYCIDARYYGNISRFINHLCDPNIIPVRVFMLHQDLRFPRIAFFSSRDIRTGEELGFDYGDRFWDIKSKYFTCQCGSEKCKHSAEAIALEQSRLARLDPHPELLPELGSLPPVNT

DOHH-2 [9] = assay: Induction of cell cycle arrest in human DOHH-2 cells assessed as accumulation of cells at S phase at 1.0 uM incubated for 24 hrs by PI staining based flow cytometry analysis (reference value: 40.7%); assay type: functional
DOHH-2 [10] = assay: Induction of apoptosis in human DOHH-2 cells assessed as late apoptotic cells measured after 48 hrs by annexin-V/FITC and PI staining based flow cytometry analysis; assay type: functional, cell-based; conditions: dose 0.25-5 µM
RPMI-8226 = assay: Antiproliferative activity against human RPMI-8226 cells assessed as inhibition of cell viability measured after 72 hrs by MTT assay; assay type: functional, cell-based; conditions: RPMI-8226, 72 h
DOHH-2 [11] = assay: Induction of cell cycle arrest in human DOHH-2 cells assessed as accumulation of cells at S phase at 0.25 uM incubated for 24 hrs by PI staining based flow cytometry analysis (reference value: 40.7%); assay type: functional
[12] = Cmax in Sprague-Dawley rat at 10 mg/kg, po measured upto 24 hrs by LC/MS/MS analysis; assay type: ADME, organism-based; conditions: in vivo
[13] = Toxicity in mouse assessed as effect on weight gain at 10 mg/kg, iv administered three times a week; assay type: organism-based; conditions: in vivo
[14] = Subacute toxicity in Balb/C mouse assessed as effect on heart at 30 mg/kg, iv administered three times in a week for 2 weeks; assay type: organism-based; conditions: in vivo, 336 h
[15] = molecular target: DNA (cytosine-5)-methyltransferase 3B (Homo sapiens, UniProt Q9UBC3); assay: Inhibition of DNMT3B (unknown origin) preincubated for 15 mins followed by substrate and [3H-SAM] addition and measured after 60 mins by microbeta analysis
[16] = Downregulation of BAX methylation level in human DOHH-2 cells at 100 nM measured after 6 days by PCR analysis relative to control; assay type: functional; conditions: time 6 day
TMD8 [17] = assay: Induction of cell cycle arrest in human TMD8 cells assessed as accumulation of cells at G0-G1 phase at 1.0 uM incubated for 24 hrs by PI staining based flow cytometry analysis (reference value: 40.7%); assay type: functional
DOHH-2 [18] = assay: Induction of cell cycle arrest in human DOHH-2 cells assessed as accumulation of cells at G0-G1 phase at 0.25 uM incubated for 24 hrs by PI staining based flow cytometry analysis (reference value: 27.1%); assay type: functional
[19] = Antitumor activity against human TMD8 cells harbouring […] xenografted in mouse model assessed as tumor inhibition rate at 10 mg/kg, iv administered three times a week in presence of chidamide relative to control; assay type: functional; design: scale not given: the % may be the effect or the level left
A549 = assay: Antiproliferative activity against human A549 cells assessed as inhibition of cell viability measured after 72 hrs by MTT assay; assay type: functional, cell-based; conditions: A549, 72 h
[20] = molecular target: T1, DNA (cytosine-5)-methyltransferase 1; assay: Inhibition of DNMT1 (unknown origin) at 5 uM preincubated for 15 mins followed by substrate and [3H-SAM] addition and measured after 60 mins by microbeta analysis relative to control; conditions: time 75.0 min

T1 sequence (P26358 whole entry): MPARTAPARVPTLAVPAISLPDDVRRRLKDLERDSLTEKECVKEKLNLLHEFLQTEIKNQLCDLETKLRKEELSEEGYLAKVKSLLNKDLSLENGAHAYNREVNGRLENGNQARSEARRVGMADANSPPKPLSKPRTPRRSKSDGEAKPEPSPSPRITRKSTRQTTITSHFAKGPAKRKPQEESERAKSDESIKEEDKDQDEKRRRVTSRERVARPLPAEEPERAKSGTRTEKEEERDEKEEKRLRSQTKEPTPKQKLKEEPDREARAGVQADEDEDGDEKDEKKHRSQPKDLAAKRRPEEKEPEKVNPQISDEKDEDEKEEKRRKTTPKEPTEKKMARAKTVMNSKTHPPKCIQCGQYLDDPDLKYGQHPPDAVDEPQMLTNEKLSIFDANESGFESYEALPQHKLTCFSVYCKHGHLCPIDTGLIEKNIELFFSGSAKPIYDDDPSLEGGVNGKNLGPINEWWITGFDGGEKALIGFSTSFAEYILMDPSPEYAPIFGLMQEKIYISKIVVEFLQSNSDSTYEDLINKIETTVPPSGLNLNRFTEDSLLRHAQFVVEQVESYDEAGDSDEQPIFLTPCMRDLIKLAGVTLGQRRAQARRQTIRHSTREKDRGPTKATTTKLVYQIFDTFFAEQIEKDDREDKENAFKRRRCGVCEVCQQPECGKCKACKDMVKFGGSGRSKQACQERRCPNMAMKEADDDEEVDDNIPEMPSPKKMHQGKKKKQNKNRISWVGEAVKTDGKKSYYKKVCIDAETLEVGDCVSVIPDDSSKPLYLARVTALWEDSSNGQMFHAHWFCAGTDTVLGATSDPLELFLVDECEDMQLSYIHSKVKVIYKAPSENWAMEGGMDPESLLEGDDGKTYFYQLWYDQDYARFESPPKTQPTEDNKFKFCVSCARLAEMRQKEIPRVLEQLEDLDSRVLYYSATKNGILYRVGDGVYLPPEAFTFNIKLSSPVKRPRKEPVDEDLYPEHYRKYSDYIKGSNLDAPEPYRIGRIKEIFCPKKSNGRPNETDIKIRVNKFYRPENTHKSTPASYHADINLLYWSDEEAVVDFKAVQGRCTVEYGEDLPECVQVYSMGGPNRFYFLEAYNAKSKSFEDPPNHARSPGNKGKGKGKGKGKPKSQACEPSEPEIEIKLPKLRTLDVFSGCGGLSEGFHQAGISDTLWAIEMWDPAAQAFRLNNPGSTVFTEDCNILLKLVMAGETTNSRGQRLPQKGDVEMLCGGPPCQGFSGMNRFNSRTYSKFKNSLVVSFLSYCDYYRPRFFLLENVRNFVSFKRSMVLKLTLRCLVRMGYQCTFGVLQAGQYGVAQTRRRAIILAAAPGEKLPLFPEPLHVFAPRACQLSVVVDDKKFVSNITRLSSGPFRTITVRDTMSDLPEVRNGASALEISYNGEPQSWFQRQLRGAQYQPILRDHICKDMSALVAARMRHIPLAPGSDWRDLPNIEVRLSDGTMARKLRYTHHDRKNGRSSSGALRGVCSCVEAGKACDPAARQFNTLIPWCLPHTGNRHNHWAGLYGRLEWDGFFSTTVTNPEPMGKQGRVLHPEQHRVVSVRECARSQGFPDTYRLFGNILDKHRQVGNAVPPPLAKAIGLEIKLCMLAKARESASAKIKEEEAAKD

Q: For `CN1CCC(Nc2nc(-c3ccnc(F)c3)nc3c2ccn3CCCN2CCCC2)CC1`, which IC50 [1] is on record?
A: 2420 nM

Q: And the Activity (TMD8 [2])?
A: 41.3%

Q: And the Activity [3]?
A: 58%

Q: And the AUC(0-t) at 24 h [4]?
A: 236 ng·h/mL

Q: What about the Activity (DOHH-2 [5]) of the same molecule?
A: 24%

Q: And the clearance [6]?
A: 123 mL/min/kg

Q: What about the inhibition [7] of the same molecule?
A: Active

Q: And the inhibition [8]?
A: 0.3%

Q: And the Activity (DOHH-2 [9])?
A: 19.9%

Q: And the Activity (DOHH-2 [10])?
A: Dose-dependent-effect

Q: What about the IC50 (RPMI-8226) of the same molecule?
A: 780 nM

Q: And the Activity (DOHH-2 [11])?
A: 37.3%

Q: And the Cmax [12]?
A: 16.7 ng/mL

Q: And the Activity [13]?
A: Non-toxic

Q: What about the Activity [14] of the same molecule?
A: Non-toxic

Q: What about the IC50 [15] of the same molecule?
A: > 20 µM

Q: What about the Activity [16] of the same molecule?
A: 55.2%

Q: What about the Activity (TMD8 [17]) of the same molecule?
A: 32.5%

Q: What about the Activity (DOHH-2 [18]) of the same molecule?
A: 28.6%

Q: And the Activity [19]?
A: 78.1%

Q: And the IC50 (A549)?
A: 720 nM

Q: What about the inhibition [20] of the same molecule?
A: 75%
